Measured values published in PubChem BioAssay (NCI).
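How tested: cells in 96-well plates exposed to compound for 48 hours at five concentrations. TGI is the concentration that stops growth completely.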

Key:
Test in all cases: DTP human tumour cell line panel, 48 h
786-0 renal = test system: 786-0 renal
A498 renal = test system: A498 renal
A549 NSCLC = test system: A549 NSCLC
ACHN renal = test system: ACHN renal
BT-549 breast = test system: BT-549 breast
CAKI-1 renal = test system: CAKI-1 renal
CCRF-CEM leukemia = test system: CCRF-CEM leukemia
COLO 205 colon = test system: COLO 205 colon
DU-145 prostate = test system: DU-145 prostate
EKVX NSCLC = test system: EKVX NSCLC
HCC-2998 colon = test system: HCC-2998 colon
HCT-116 colon = test system: HCT-116 colon
HCT-15 colon = test system: HCT-15 colon
HL-60(TB) leukemia = test system: HL-60(TB) leukemia
HOP-62 NSCLC = test system: HOP-62 NSCLC
HOP-92 NSCLC = test system: HOP-92 NSCLC
HS 578T breast = test system: HS 578T breast
HT29 colon = test system: HT29 colon
IGROV1 ovarian = test system: IGROV1 ovarian
K-562 leukemia = test system: K-562 leukemia
KM12 colon = test system: KM12 colon
M14 melanoma = test system: M14 melanoma
MALME-3M melanoma = test system: MALME-3M melanoma
MCF7 breast = test system: MCF7 breast
MDA-MB-231 breast = test system: MDA-MB-231 breast
MDA-MB-435 = test system: MDA-MB-435
MDA-N = test system: MDA-N
NCI-H226 lung = test system: NCI-H226 lung
NCI-H23 lung = test system: NCI-H23 lung
NCI-H460 lung = test system: NCI-H460 lung
NCI-H522 lung = test system: NCI-H522 lung
NCI/ADR-RES ovarian = test system: NCI/ADR-RES ovarian
OVCAR-3 ovarian = test system: OVCAR-3 ovarian
OVCAR-4 ovarian = test system: OVCAR-4 ovarian
OVCAR-5 ovarian = test system: OVCAR-5 ovarian
OVCAR-8 ovarian = test system: OVCAR-8 ovarian
PC-3 prostate = test system: PC-3 prostate
RPMI-8226 leukemia = test system: RPMI-8226 leukemia
RXF 393 renal = test system: RXF 393 renal
SF-268 CNS = test system: SF-268 CNS
SF-295 CNS = test system: SF-295 CNS
SF-539 CNS = test system: SF-539 CNS
SK-MEL-2 melanoma = test system: SK-MEL-2 melanoma
SK-MEL-28 melanoma = test system: SK-MEL-28 melanoma
SK-MEL-5 melanoma = test system: SK-MEL-5 melanoma
SK-OV-3 ovarian = test system: SK-OV-3 ovarian
SN12C renal = test system: SN12C renal
SNB-19 CNS = test system: SNB-19 CNS
SNB-75 CNS = test system: SNB-75 CNS
SR leukemia = test system: SR leukemia
SW-620 colon = test system: SW-620 colon
T-47D breast = test system: T-47D breast
TK-10 renal = test system: TK-10 renal
U251 CNS = test system: U251 CNS
UACC-257 melanoma = test system: UACC-257 melanoma
UACC-62 melanoma = test system: UACC-62 melanoma
UO-31 renal = test system: UO-31 renal
LOX IMVI melanoma = test system: LOX IMVI melanoma
MOLT-4 leukemia = test system: MOLT-4 leukemia

O=C1c2ccccc2C(=O)c2c(NC(=O)C(Cl)CCl)cccc21 (stereo not given)
TGI (786-0 renal): 11.9 µM
TGI (A498 renal): 36.2 µM
TGI (A549 NSCLC): 47.6 µM
TGI (ACHN renal): 29 µM
TGI (BT-549 breast): 31.2 µM
TGI (CAKI-1 renal): 38.8 µM
TGI (CCRF-CEM leukemia): 2.38 µM
TGI (COLO 205 colon): 26.9 µM
TGI (DU-145 prostate): 24.6 µM
TGI (EKVX NSCLC): 42.7 µM
TGI (HCC-2998 colon): 32.4 µM
TGI (HCT-116 colon): 28.4 µM
TGI (HCT-15 colon): 23.4 µM
TGI (HL-60(TB) leukemia): 2.68 µM
TGI (HOP-62 NSCLC): 23.6 µM
TGI (HOP-92 NSCLC): 9.82 µM
TGI (HS 578T breast): > 100 µM
TGI (HT29 colon): 10.5 µM
TGI (IGROV1 ovarian): 20 µM
TGI (K-562 leukemia): 0.395 µM
TGI (KM12 colon): 8.26 µM
TGI (M14 melanoma): 20.9 µM
TGI (MALME-3M melanoma): 47.2 µM
TGI (MCF7 breast): 2.47 µM
TGI (MDA-MB-231 breast): 18.4 µM
TGI (MDA-MB-435): 23 µM
TGI (MDA-N): 24.6 µM
TGI (NCI-H226 lung): 48.3 µM
TGI (NCI-H23 lung): 11.6 µM
TGI (NCI-H460 lung): 31.1 µM
TGI (NCI-H522 lung): 7.13 µM
TGI (NCI/ADR-RES ovarian): > 77.6 µM
TGI (OVCAR-3 ovarian): 23.1 µM
TGI (OVCAR-4 ovarian): 23.3 µM
TGI (OVCAR-5 ovarian): 34.1 µM
TGI (OVCAR-8 ovarian): > 39.1 µM
TGI (PC-3 prostate): 24.3 µM
TGI (RPMI-8226 leukemia): 2.11 µM
TGI (RXF 393 renal): 16.2 µM
TGI (SF-268 CNS): 25 µM
TGI (SF-295 CNS): > 62.1 µM
TGI (SF-539 CNS): 11.5 µM
TGI (SK-MEL-2 melanoma): 12.2 µM
TGI (SK-MEL-28 melanoma): 35.5 µM
TGI (SK-MEL-5 melanoma): 28.1 µM
TGI (SK-OV-3 ovarian): 39.1 µM
TGI (SN12C renal): 21.4 µM
TGI (SNB-19 CNS): 32.9 µM
TGI (SNB-75 CNS): 32.4 µM
TGI (SR leukemia): 0.347 µM
TGI (SW-620 colon): 14.7 µM
TGI (T-47D breast): > 27.5 µM
TGI (TK-10 renal): 18.1 µM
TGI (U251 CNS): > 38.4 µM
TGI (UACC-257 melanoma): 36.5 µM
TGI (UACC-62 melanoma): 33.9 µM
TGI (UO-31 renal): 24.1 µM

O=c1oc2ccccc2cc1-c1csc(Nc2cc(Cl)cc(Cl)c2)n1
TGI (786-0 renal): 12.9 µM
TGI (A498 renal): 65.6 µM
TGI (A549 NSCLC): 16.9 µM
TGI (ACHN renal): 4.38 µM
TGI (BT-549 breast): > 100 µM
TGI (CAKI-1 renal): > 32.4 µM
TGI (CCRF-CEM leukemia): > 100 µM
TGI (COLO 205 colon): > 100 µM
TGI (DU-145 prostate): > 100 µM
TGI (EKVX NSCLC): > 100 µM
TGI (HCC-2998 colon): > 100 µM
TGI (HCT-116 colon): > 38.3 µM
TGI (HCT-15 colon): > 100 µM
TGI (HL-60(TB) leukemia): > 100 µM
TGI (HOP-62 NSCLC): 17.9 µM
TGI (HOP-92 NSCLC): > 58.3 µM
TGI (HS 578T breast): 98.1 µM
TGI (HT29 colon): 14.2 µM
TGI (IGROV1 ovarian): 36 µM
TGI (K-562 leukemia): > 100 µM
TGI (KM12 colon): > 58.6 µM
TGI (LOX IMVI melanoma): 7.62 µM
TGI (M14 melanoma): > 72.2 µM
TGI (MALME-3M melanoma): 64.8 µM
TGI (MCF7 breast): 61.4 µM
TGI (MDA-MB-231 breast): 63.8 µM
TGI (MDA-MB-435): > 53.1 µM
TGI (MDA-N): > 100 µM
TGI (MOLT-4 leukemia): > 100 µM
TGI (NCI-H226 lung): > 56.1 µM
TGI (NCI-H23 lung): > 56.7 µM
TGI (NCI-H460 lung): > 100 µM
TGI (NCI-H522 lung): 96.6 µM
TGI (NCI/ADR-RES ovarian): > 83.7 µM
TGI (OVCAR-3 ovarian): 35.2 µM
TGI (OVCAR-5 ovarian): > 100 µM
TGI (OVCAR-8 ovarian): > 52 µM
TGI (PC-3 prostate): > 100 µM
TGI (RPMI-8226 leukemia): > 100 µM
TGI (RXF 393 renal): 14.6 µM
TGI (SF-268 CNS): > 100 µM
TGI (SF-295 CNS): > 44.5 µM
TGI (SF-539 CNS): 5.16 µM
TGI (SK-MEL-2 melanoma): > 100 µM
TGI (SK-MEL-28 melanoma): 59 µM
TGI (SK-MEL-5 melanoma): > 100 µM
TGI (SK-OV-3 ovarian): > 49.5 µM
TGI (SN12C renal): > 44.8 µM
TGI (SNB-19 CNS): > 52.8 µM
TGI (SNB-75 CNS): 11.8 µM
TGI (SR leukemia): > 100 µM
TGI (SW-620 colon): 50.9 µM
TGI (T-47D breast): > 100 µM
TGI (TK-10 renal): 85.2 µM
TGI (U251 CNS): 11.7 µM
TGI (UACC-257 melanoma): > 100 µM
TGI (UACC-62 melanoma): > 100 µM
TGI (UO-31 renal): 7.53 µM
